This note sets out measurements from patent US11129807B2, “Methods of treating schizophrenia” (Sunovion Pharmaceuticals Inc., priority 2017, dated 2021).

The subject of test [1] is Pre-pulse Inhibition (PPI) in Mice. Description: Pre-pulse inhibition (PPI) of startle in mice.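 Also: plus grades count prepulse intensities with significant PPI increase at P below 0.05 and minus means no change.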 In kind it is in vivo. Particulars: 30 min prior to PPI test, male C57Bl/6J mice, vs. vehicle. The protocol:
(§1) Anti-psychotic like activity of the compounds was evaluated in mice using the PCP hyperactivity and Pre-Pulse Inhibition (PPI) models of schizophrenia.
(§2) Methods: Animals: Male C57Bl/6J mice from Jackson Laboratories (Bar Harbor, Me.) were used. Upon receipt, mice were assigned unique identification numbers (tail marked) and were group housed with 4 mice per cage in OptiMICE ventilated cages. All animals remained housed in groups of four during the remainder of the study. All mice were acclimated to the colony room for at least two weeks prior to testing. During the period of acclimation, mice were examined on a regular basis, handled, and weighed to assure adequate health and suitability. Animals were maintained on a 12/12 light/dark cycle. The room temperature was maintained between 20 and 23° C. with a relative humidity maintained between 30% and 70%. Chow and water were provided ad libitum for the duration of the study. In each test, animals were randomly assigned across treatment groups.
Prepulse Inhibition of Startle: The acoustic startle is an unconditioned reflex response to an external auditory stimulus. Prepulse inhibition of startle (PPI) refers to the reduction in the startle response caused by the presentation of a low-intensity auditory stimulus prior to the startle stimulus. The PPI paradigm is used for the study of schizophrenia and antipsychotic action due to the similarities between the results from human and rodent studies. […] Various psychotomimetic drugs such as PCP can disrupt PPI. In mice, antipsychotic drugs such as clozapine can reverse the disruption of PPI induced by PCP.
Mice were placed in the PPI chambers (Med Associates) for a 5 min session of white noise (70 dB) habituation. After the habituation period the test session was initiated. The session started with a habituation block of 6 presentations of the startle stimulus alone, followed by 10 PPI blocks, each of which consisted of 6 different types of trials. Trial types were: ‘null’ (no stimuli), ‘startle’ (120 dB), ‘startle plus prepulse’ (4, 8 and 12 dB over background noise, i.e., 74, 78 or 82 dB) and ‘prepulse’ (82 dB). Trial types were presented in a random order within each block. Each trial started with a 50 ms stimulus-free period during which baseline movements were recorded. This was followed by a subsequent 20 ms period during which the prepulse stimulus was presented and responses to the prepulse measured. After a further 100 ms period, the startle stimulus was presented for 40 ms and responses recorded for 100 ms from startle onset. Responses were sampled every ms. The inter-trial interval was variable with an average of 15 s (range from 10 to 20 s). In ‘startle’ trials the basic auditory startle response was measured. The basic startle response was calculated as the mean startle response of all ‘startle’ trials (i.e., excluding the first habituation block). In ‘startle plus prepulse’ trials the degree of inhibition of the normal startle was calculated and expressed as a percentage of the basic startle response.
Mice were treated with vehicle, haloperidol (1 mg/kg; i.p) or test compound 30 min prior to PPI test. The PPI enclosures were cleaned following each test.

For test [2], the system named is PCP-Induced Hyperactivity Responses in Mice. Kind of test: PCP-induced hyperactivity (open field) in mice.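 Also: plus means significant inhibition of PCP hyperactivity at P below 0.05 and minus means none.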 The test is classed as in vivo. To be noted: male C57Bl/6J mice, vs. vehicle + PCP. How it is done: as §1, §2
The analysis was configured to divide the open field into a center and periphery zone. Distance traveled was measured from horizontal beam breaks as the mouse moved whereas rearing activity was measured from vertical beam breaks.
Mice were injected with vehicle, test compound, or clozapine (1 mg/kg; i.p) and placed in the OF chambers for 30 min measurement of baseline activity. Mice were then injected with either water or PCP (5 mg/kg; i.p) and placed back in the OF chambers for a 60-minute session. At the end of each OF test session the OF chambers were thoroughly cleaned.

Where [3] appears, read: 0.3 mg/kg Compound + PCP (5 mg/kg; i.p).
The mark [4] stands for this setting: 1 mg/kg Compound + PCP (5 mg/kg; i.p).
Setting [5] is: 3 mg/kg Compound + PCP (5 mg/kg; i.p).
Where [6] appears, read: 10 mg/kg Compound + PCP (5 mg/kg; i.p).
The mark [7] stands for this setting: 30 mg/kg Compound + PCP (5 mg/kg; i.p).
Where [8] appears, read: 100 mg/kg Compound + PCP (5 mg/kg; i.p).

Regarding `c1cc2c(s1)[C@@H]([C@H]1CCCN1)OCC2` [Compound 205], the results for the “Effect on Pre-pulse Inhibition (PPI)” value in test [1] (3 mg/kg), in test [1] (10 mg/kg) and in test [1] (30 mg/kg) were “−”, “−” and “+++”, respectively. Also, the “Total Distance Traveled (cm)” value in test [2] (setting [3]), in test [2] (setting [4]), in test [2] (setting [5]), in test [2] (setting [6]) and in test [2] (setting [7]) was “+” each time.
As to `CNCC1OCCc2c(C)csc21` (centres unmarked) [Compound 140], the “Effect on Pre-pulse Inhibition (PPI)” value in test [1] (10 mg/kg), in test [1] (30 mg/kg) and in test [1] (100 mg/kg) was “−” each time. Besides, the “Total Distance Traveled (cm)” value in test [2] (setting [6]) is on record as “−”; in test [2] (setting [7]), “−”; in test [2] (setting [8]), “+”.
Turning to `CCNC[C@@H]1OCCc2sccc21` [Compound 310], the “Effect on Pre-pulse Inhibition (PPI)” value was “−” in test [1] (3 mg/kg), “−” in test [1] (10 mg/kg) and “+++” in test [1] (30 mg/kg). Besides, the “Total Distance Traveled (cm)” value was “+” in test [2] (setting [3]); “−” in test [2] (setting [4]); “−” in test [2] (setting [5]); “+” in test [2] (setting [6]); “+” in test [2] (setting [7]).
Consider `NC[C@@H]1OCCc2ccsc21` [Compound 127], for which the entries for the “Effect on Pre-pulse Inhibition (PPI)” value in test [1] (3 mg/kg), in test [1] (10 mg/kg) and in test [1] (30 mg/kg) were “+++”, “−” and “+++”, respectively. In addition, the “Total Distance Traveled (cm)” value in test [2] (setting [3]) is recorded as “−”; in test [2] (setting [4]) it was “−”; in test [2] (setting [5]), “+”; in test [2] (setting [6]), “+”; in test [2] (setting [7]) it was “−”.
Regarding `NC[C@H]1OCCc2sccc21` [Compound 3], the results for the “Effect on Pre-pulse Inhibition (PPI)” value in test [1] (10 mg/kg), in test [1] (30 mg/kg) and in test [1] (100 mg/kg) were “+++”, “+++” and “−”, respectively. For the same compound, the “Total Distance Traveled (cm)” value in test [2] (setting [6]), in test [2] (setting [7]) and in test [2] (setting [8]) was “−” in each case.
Turning to `CNC[C@@H]1OCCc2c(C)csc21` [Compound 171], the “Effect on Pre-pulse Inhibition (PPI)” value in test [1] (3 mg/kg) was “−”; in test [1] (10 mg/kg) it was “−”; in test [1] (30 mg/kg), “−”; in test [1] (100 mg/kg) it was “+++”. For the same compound, the “Total Distance Traveled (cm)” value in test [2] (setting [3]) was “−”; in test [2] (setting [4]), “−”; in test [2] (setting [5]), “−”; in test [2] (setting [6]), “−”; in test [2] (setting [7]), “+”.
`CNC[C@H]1OCCc2sc(C)cc21` [Compound 58]: the “Effect on Pre-pulse Inhibition (PPI)” value in test [1] (10 mg/kg) is “+++”; in test [1] (30 mg/kg), “+”; in test [1] (100 mg/kg), “+++”. For the same compound, the “Total Distance Traveled (cm)” value in test [2] (setting [6]), in test [2] (setting [7]) and in test [2] (setting [8]) was “+” in each case.
Turning to `CNCC1OCCc2sccc21` (centres unmarked) [Compound 4], the figures for the “Effect on Pre-pulse Inhibition (PPI)” value in test [1] (10 mg/kg), in test [1] (30 mg/kg) and in test [1] (100 mg/kg) were “+++”, “−” and “+++”, respectively. For the same compound, the “Total Distance Traveled (cm)” value in test [2] (setting [3]), in test [2] (setting [4]), in test [2] (setting [5]), in test [2] (setting [6]), in test [2] (setting [7]) and in test [2] (setting [8]) was “+” throughout.
Regarding `[2H]C([2H])([2H])NC[C@H]1OCCc2sccc21` [Compound 158], the “Effect on Pre-pulse Inhibition (PPI)” value is recorded as “−” in test [1] (3 mg/kg), “−” in test [1] (10 mg/kg), “−” in test [1] (30 mg/kg) and “+++” in test [1] (100 mg/kg). Further, the “Total Distance Traveled (cm)” value in test [2] (setting [4]), in test [2] (setting [5]), in test [2] (setting [6]), in test [2] (setting [7]) and in test [2] (setting [8]) was “+” in each case.
Regarding `C[C@H](N)[C@@H]1OCCc2ccsc21` [Compound 213], the “Effect on Pre-pulse Inhibition (PPI)” value in test [1] (3 mg/kg) was “−”; in test [1] (10 mg/kg), “+++”; in test [1] (30 mg/kg) it was “+++”. Also, the “Total Distance Traveled (cm)” value in test [2] (setting [3]), in test [2] (setting [4]), in test [2] (setting [5]), in test [2] (setting [6]) and in test [2] (setting [7]) was “+” in each case.
For the compound `NCC1OCCc2sccc21` (centres unmarked) [Compound 1], the “Effect on Pre-pulse Inhibition (PPI)” value in test [1] (10 mg/kg) was “−”; in test [1] (30 mg/kg) it was “+++”; in test [1] (100 mg/kg), “+++”. The “Total Distance Traveled (cm)” value in test [2] (setting [6]) is reported as “+”; in test [2] (setting [7]), “+”; in test [2] (setting [8]), “−”.
